Data reported in patent US20240285785A1, “TARGETING SORTILIN” (priority 2022, published 2024).
Like-named read-outs stand apart in the source and are kept apart here.

Experiment: Murine serum stability assay
Format: in vitro ADME, mouse (CD-1)
Conditions: 37° C.; for half-life: male, CD-1, mouse, read-out: Murine serum stability assay, T1/2
Method: Serum was drawn from male CD-1 mice by Pharmidex. Lyophilized peptides were solubilized in DMSO and then further diluted into male mouse (CD-1) serum at 37° C. in duplicates. The reaction was incubated at 37° C. and samples extracted at 6 time points: 0, 0.16, 0.5, 1, 3, and 6 hrs. Acetonitrile (ACN) with internal standard (tolbutamide) was added to stop the incubation. Samples were centrifuged, and the supernatant was analyzed by HPLC-MS/MS for the parent compound.

[1] = mouse serum, male CD-1 mouse serum

| Compound | half-life (serum) [min] | half-life [1] [min] | Murine serum stability assay, T1/2 (male CD-1 mouse serum, listed as Aro-SAR-Q15) [min] |
| --- | --- | --- | --- |
| CC(C)C[C@H](NC(=O)[C@H](CC(C)C)NC(=O)[C@H](CCC(N)=O)NC(=O)[C@H](CCCNC(=N)N)NC(=O)[C@H](CC(C)C)NC(=O)[C@H](C)NC(=O)[C@@H]1CCCN1C(=O)[C@H](Cc1ccccc1)NC(=O)[C@H](CCCNC(=N)N)NC(=O)[C@H](CC(C)C)NC(=O)[C@@H]1CCCN1C(=O)[C@H](C)NC(=O)[C@H](CC(=O)O)NC(=O)[C@H](Cc1c[nH]c2ccccc12)NC(=O)[C@H](CCCNC(=N)N)NC(=O)[C@@H]1CCCN1C(=O)[C@H](C)N)C(=O)O [Arb-SAR-C14] | 7.91 |  |  |
| CC(C)C[C@H](NC(=O)[C@H](C)NC(=O)[C@@H]1CCCN1C(=O)[C@H](CC(=O)O)NC(=O)[C@H](CCCNC(=N)N)NC(=O)[C@H](CC(C)C)NC(=O)[C@@H]1CCCN1C(=O)[C@H](C)NC(=O)[C@H](CC(=O)O)NC(=O)[C@H](Cc1c[nH]c2ccccc12)NC(=O)[C@H](CCCNC(=N)N)NC(=O)[C@@H]1CCCN1C(=O)[C@H](C)N)C(=O)N[C@@H](CCCNC(=N)N)C(=O)N[C@@H](CCC(N)=O)C(=O)N[C@@H](CC(C)C)C(=O)N[C@@H](CC(C)(C)C)C(=O)O [Arb-SAR-J05] |  | 10.1 |  |
| CC(C)C[C@H](NC(=O)[C@H](CC(C)(C)C)NC(=O)[C@H](CCC(N)=O)NC(=O)[C@H](CCCNC(=N)N)NC(=O)[C@H](CC(C)C)NC(=O)[C@H](C)NC(=O)[C@@H]1CCCN1C(=O)[C@H](CC(=O)O)NC(=O)[C@H](CCCNC(=N)N)NC(=O)[C@H](CC(C)C)NC(=O)[C@@H]1CCCN1C(=O)[C@H](C)NC(=O)[C@H](CC(=O)O)NC(=O)[C@H](Cc1c[nH]c2ccccc12)NC(=O)[C@H](CCCNC(=N)N)NC(=O)[C@@H]1CCCN1C(=O)[C@H](C)N)C(=O)O [Arb-SAR-J21] |  | 11 |  |
| CC(C)CC[C@H](NC(=O)[C@H](CCCNC(=N)N)NC(=O)[C@H](CC(C)C)NC(=O)[C@H](C)NC(=O)[C@@H]1CCCN1C(=O)[C@H](CC(=O)O)NC(=O)[C@H](CCCNC(=N)N)NC(=O)[C@H](CC(C)C)NC(=O)[C@@H]1CCCN1C(=O)[C@H](C)NC(=O)[C@H](CC(=O)O)NC(=O)[C@H](Cc1c[nH]c2ccccc12)NC(=O)[C@H](CCCNC(=N)N)NC(=O)[C@@H]1CCCN1C(=O)[C@H](C)N)C(=O)N[C@@H](CC(C)C)C(=O)N[C@@H](CC(C)C)C(=O)O [Arb-SAR-K01] |  | 13.8 |  |
| CC(C)C[C@H](NC(=O)[C@H](CC(C)C)NC(=O)[C@H](CCO)NC(=O)[C@H](CCCNC(=N)N)NC(=O)[C@H](CC(C)C)NC(=O)[C@H](C)NC(=O)[C@@H]1CCCN1C(=O)[C@H](CC(=O)O)NC(=O)[C@H](CCCNC(=N)N)NC(=O)[C@H](CC(C)C)NC(=O)[C@@H]1CCCN1C(=O)[C@H](C)NC(=O)[C@H](CC(=O)O)NC(=O)[C@H](Cc1c[nH]c2ccccc12)NC(=O)[C@H](CCCNC(=N)N)NC(=O)[C@@H]1CCCN1C(=O)[C@H](C)N)C(=O)O [Arb-SAR-K3] |  | 11.2 |  |
| CC(C)CC[C@H](NC(=O)[C@H](CCC(C)C)NC(=O)[C@H](CCC(N)=O)NC(=O)[C@H](CCCNC(=N)N)NC(=O)[C@H](CC(C)C)NC(=O)[C@H](C)NC(=O)[C@@H]1CCCN1C(=O)[C@H](CC(=O)O)NC(=O)[C@H](CCCNC(=N)N)NC(=O)[C@H](CC(C)C)NC(=O)[C@@H]1CCCN1C(=O)[C@H](C)NC(=O)[C@H](CC(=O)O)NC(=O)[C@H](Cc1c[nH]c2ccccc12)NC(=O)[C@H](CCCNC(=N)N)NC(=O)[C@@H]1CCCN1C(=O)[C@H](C)N)C(=O)O [Arb-SAR-N22] |  | 16.7 |  |
| CC(C)C[C@H](NC(=O)[C@H](C)NC(=O)[C@@H]1CCCN1C(=O)[C@H](CC(=O)O)NC(=O)[C@H](CCCNC(=N)N)NC(=O)[C@H](CC(C)C)NC(=O)[C@@H]1CCCN1C(=O)[C@H](C)NC(=O)[C@H](CC(=O)O)NC(=O)[C@H](Cc1c[nH]c2ccccc12)NC(=O)[C@H](CCCNC(=N)N)NC(=O)[C@@H]1CCCN1C(=O)[C@H](C)N)C(=O)N[C@@H](CCCNC(=N)N)C(=O)N[C@@H](CCC(N)=O)C(=O)N[C@@H](Cc1ccccc1)C(=O)N[C@@H](CC(C)(C)C)C(=O)O [Arb-SAR-P15] |  | 9.79 |  |
| CC(C)CC[C@H](NC(=O)[C@H](CCC(N)=O)NC(=O)[C@H](CCCNC(=N)N)NC(=O)[C@H](CC(C)C)NC(=O)[C@H](C)NC(=O)[C@@H]1CCCN1C(=O)[C@H](CC(=O)O)NC(=O)[C@H](CCCNC(=N)N)NC(=O)[C@H](CC(C)C)NC(=O)[C@@H]1CCCN1C(=O)[C@H](C)NC(=O)[C@H](CC(=O)O)NC(=O)[C@H](Cc1c[nH]c2ccccc12)NC(=O)[C@H](CCCNC(=N)N)NC(=O)[C@@H]1CCCN1C(=O)[C@H](C)N)C(=O)N[C@@H](CC(C)(C)C)C(=O)O [Arb-SAR-P17] |  | 12.8 |  |
| CCCC[C@H](NC(=O)[C@H](CCC(N)=O)NC(=O)[C@H](CCCNC(=N)N)NC(=O)[C@H](CC(C)C)NC(=O)[C@H](C)NC(=O)[C@@H]1CCCN1C(=O)[C@H](CC(=O)O)NC(=O)[C@H](CCCNC(=N)N)NC(=O)[C@H](CC(C)C)NC(=O)[C@@H]1CCCN1C(=O)[C@H](C)NC(=O)[C@H](CC(=O)O)NC(=O)[C@H](Cc1c[nH]c2ccccc12)NC(=O)[C@H](CCCNC(=N)N)NC(=O)[C@@H]1CCCN1C(=O)[C@H](C)N)C(=O)N[C@@H](CC(C)(C)C)C(=O)O [Arb-SAR-P19] |  | 11.8 |  |
| CC(C)C[C@H](NC(=O)[C@H](C)NC(=O)[C@@H]1CCCN1C(=O)[C@H](CC(=O)O)NC(=O)[C@H](CCCNC(=N)N)NC(=O)[C@H](CC(C)C)NC(=O)[C@@H]1CCCN1C(=O)[C@H](C)NC(=O)[C@H](CC(=O)O)NC(=O)[C@H](Cc1c[nH]c2ccccc12)NC(=O)[C@H](CCCNC(=N)N)NC(=O)[C@@H]1CCCN1C(=O)[C@H](C)N)C(=O)N[C@@H](CCCNC(=N)N)C(=O)N[C@@H](CCC(N)=O)C(=O)N[C@@H](CC1CC1)C(=O)N[C@@H](CC(C)(C)C)C(=O)O [Arb-SAR-P21] |  | 9.33 |  |
| CC(C)C[C@H](NC(=O)[C@H](C)NC(=O)[C@@H]1CCCN1C(=O)[C@H](CC(=O)O)NC(=O)[C@H](CCCNC(=N)N)NC(=O)[C@H](CC(C)C)NC(=O)[C@@H]1CCCN1C(=O)[C@H](C)NC(=O)[C@H](CC(=O)O)NC(=O)[C@H](Cc1c[nH]c2ccccc12)NC(=O)[C@H](CCCNC(=N)N)NC(=O)[C@@H]1CCCN1C(=O)[C@H](C)N)C(=O)N[C@@H](CCCNC(=N)N)C(=O)N[C@@H](CCC(N)=O)C(=O)N[C@@H](CC(C)(C)C)C(=O)N[C@@H](CC(C)(C)C)C(=O)O [Arb-SAR-P22] |  | 9.96 |  |
| CC(C)C[C@H](NC(=O)[C@H](C)NC(=O)[C@@H]1CCCN1C(=O)[C@H](CC(=O)O)NC(=O)[C@H](CCCNC(=N)N)NC(=O)[C@H](CC(C)C)NC(=O)[C@@H]1CCCN1C(=O)[C@H](C)NC(=O)[C@H](CC(=O)O)NC(=O)[C@H](Cc1c[nH]c2ccccc12)NC(=O)[C@H](CCCNC(=N)N)NC(=O)[C@@H]1CCCN1C(=O)[C@H](C)N)C(=O)N[C@@H](CCCNC(=N)N)C(=O)N[C@@H](CCC(N)=O)C(=O)N[C@H](C(=O)N[C@@H](CC(C)(C)C)C(=O)O)C(C)(C)C [Arb-SAR-P23] |  | 12.7 |  |
| CC(C)C[C@H](NC(=O)[C@H](C)NC(=O)[C@@H]1CCCN1C(=O)[C@H](CC(=O)O)NC(=O)[C@H](CCCNC(=N)N)NC(=O)[C@H](CC(C)C)NC(=O)[C@@H]1CCCN1C(=O)[C@H](C)NC(=O)[C@H](CC(=O)O)NC(=O)[C@H](Cc1c[nH]c2ccccc12)NC(=O)[C@H](CCCNC(=N)N)NC(=O)[C@@H]1CCCN1C(=O)[C@H](C)N)C(=O)N[C@@H](CCCNC(=N)N)C(=O)N[C@@H](CCC(N)=O)C(=O)N[C@@H](CC1CCC1)C(=O)N[C@@H](CC(C)(C)C)C(=O)O [Arb-SAR-P24] |  | 10.1 |  |
| CC(C)C[C@H](NC(=O)[C@H](C)NC(=O)[C@@H]1CCCN1C(=O)[C@H](CC(=O)O)NC(=O)[C@H](CCCNC(=N)N)NC(=O)[C@H](CC(C)C)NC(=O)[C@@H]1CCCN1C(=O)[C@H](C)NC(=O)[C@H](CC(=O)O)NC(=O)[C@H](Cc1c[nH]c2ccccc12)NC(=O)[C@H](CCCNC(=N)N)NC(=O)[C@@H]1CCCN1C(=O)[C@H](C)N)C(=O)N[C@@H](CCCNC(=N)N)C(=O)N[C@@H](CCC(N)=O)C(=O)N[C@@H](Cc1ccccc1)C(=O)N[C@@H](CC1CCC1)C(=O)O [Arb-SAR-Q7] |  | 7.73 |  |
| CC(C)CC[C@H](NC(=O)[C@H](CCC(N)=O)NC(=O)[C@H](CCCNC(=N)N)NC(=O)[C@H](CC(C)C)NC(=O)[C@H](C)NC(=O)[C@@H]1CCCN1C(=O)[C@H](CC(=O)O)NC(=O)[C@H](CCCNC(=N)N)NC(=O)[C@H](CC(C)C)NC(=O)[C@@H]1CCCN1C(=O)[C@H](C)NC(=O)[C@H](CC(=O)O)NC(=O)[C@H](Cc1c[nH]c2ccccc12)NC(=O)[C@H](CCCNC(=N)N)NC(=O)[C@@H]1CCCN1C(=O)[C@H](C)N)C(=O)N[C@@H](CC1CCC1)C(=O)O [Arb-SAR-Q09] |  | 11.4 |  |
| CC(C)C[C@H](NC(=O)[C@H](C)NC(=O)[C@@H]1CCCN1C(=O)[C@H](CC(=O)O)NC(=O)[C@H](CCCNC(=N)N)NC(=O)[C@H](CC(C)C)NC(=O)[C@@H]1CCCN1C(=O)[C@H](C)NC(=O)[C@H](CC(=O)O)NC(=O)[C@H](Cc1c[nH]c2ccccc12)NC(=O)[C@H](CCCNC(=N)N)NC(=O)[C@@H]1CCCN1C(=O)[C@H](C)N)C(=O)N[C@@H](CCCNC(=N)N)C(=O)N[C@@H](CCC(N)=O)C(=O)N[C@@H](CC1CC1)C(=O)N[C@@H](CC1CCC1)C(=O)O [Arb-SAR-Q13] |  | 14.1 |  |
| CC(C)C[C@H](NC(=O)[C@H](C)NC(=O)[C@@H]1CCCN1C(=O)[C@H](CC(=O)O)NC(=O)[C@H](CCCNC(=N)N)NC(=O)[C@H](CC(C)C)NC(=O)[C@@H]1CCCN1C(=O)[C@H](C)NC(=O)[C@H](CC(=O)O)NC(=O)[C@H](Cc1c[nH]c2ccccc12)NC(=O)[C@H](CCCNC(=N)N)NC(=O)[C@@H]1CCCN1C(=O)[C@H](C)N)C(=O)N[C@@H](CCCNC(=N)N)C(=O)N[C@@H](CCC(N)=O)C(=O)N[C@H](C(=O)N[C@@H](CC1CCC1)C(=O)O)C(C)(C)C [Arb-SAR-Q15] |  | 16.9 | 18.92 |
